The results in this text go back to BindingDB's records for doi:10.1016/j.bmcl.2004.02.020 (Pfizer, 2004).

A value given as a limit tells only on which side of the number the result lay.

This assay concerns the target T1, C-C chemokine receptor type 1 (Homo sapiens, UniProt P32246).
T1 sequence (P32246 whole entry): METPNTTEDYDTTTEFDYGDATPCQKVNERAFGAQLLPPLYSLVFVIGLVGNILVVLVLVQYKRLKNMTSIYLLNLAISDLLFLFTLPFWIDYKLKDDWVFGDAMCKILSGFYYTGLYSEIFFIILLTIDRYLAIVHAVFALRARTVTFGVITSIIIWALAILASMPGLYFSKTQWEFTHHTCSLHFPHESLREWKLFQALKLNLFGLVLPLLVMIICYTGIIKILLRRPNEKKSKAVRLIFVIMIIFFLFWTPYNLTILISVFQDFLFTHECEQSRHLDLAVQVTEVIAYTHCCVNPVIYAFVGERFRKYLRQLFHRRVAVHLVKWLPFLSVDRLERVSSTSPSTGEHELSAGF
Description: Compound was tested for inhibition of CCL3 binding to chemokine receptor-1; inactive at a concentration of 32 uM.

For `CNC(=O)CC[C@H](O)[C@H](CC1CCCCC1)NC(=O)c1cnc2ccccc2c1`, the IC50 was < 50 µM. As for `CNC(=O)[C@@H](CC(C)C)C[C@@H](O)[C@H](CC1CCCCC1)NC(=O)c1cnc2ccccc2c1`, the figure is < 50 µM. The same measure for `CC[C@H](C)[C@H](NC(=O)c1cnc2ccccc2c1)[C@@H](O)C[C@@H](CC(C)C)C(=O)NC`: < 50 µM; for `CNC(=O)[C@H](CC(C)C)C[C@@H](O)[C@H](CC1CCCCC1)NC(=O)c1cnc2ccccc2c1`: < 50 µM. Take `CNC(=O)[C@H](CC(C)C)C[C@@H](O)[C@@H](CC1CCCCC1)NC(=O)c1cnc2ccccc2c1`: the IC50 was < 50 µM. For the compound `CNC(=O)[C@@H](CC(C)C)C[C@H](O)[C@@H](CC1CCCCC1)NC(=O)c1cnc2ccccc2c1`, the IC50 is < 50 µM.

In general, IC50 refers to the concentration needed to halve the response being measured.
